From patent publication US8389513B2, “2-amino-5,5-difluoro-5,6-dihydro-4H-[1,3]oxazin-4-yl)-phenyl]-amides” (Hoffmann-La Roche Inc., priority 2009, dated 2013)

What was measured:
[1] = target: T1, BACE2 (Rattus norvegicus, UniProt Q6IE75); experiment: Assay for BACE inhibition by measuring cellular TMEM27 cleavage; assay type: cell-based; details: INS-TMEM27 cells (INS1e-derived); shed TMEM27 by ELISA; read-out: BACE2 cell act. IC50
T1 construct: endogenous cellular BACE2 in the Ins1e rat cell line; endogenous in cells; host or cells: INS-TMEM27 (INS1e-derived rat cell line with TetOn-inducible full-length hTMEM27)
T1 sequence (Q6IE75 63-514): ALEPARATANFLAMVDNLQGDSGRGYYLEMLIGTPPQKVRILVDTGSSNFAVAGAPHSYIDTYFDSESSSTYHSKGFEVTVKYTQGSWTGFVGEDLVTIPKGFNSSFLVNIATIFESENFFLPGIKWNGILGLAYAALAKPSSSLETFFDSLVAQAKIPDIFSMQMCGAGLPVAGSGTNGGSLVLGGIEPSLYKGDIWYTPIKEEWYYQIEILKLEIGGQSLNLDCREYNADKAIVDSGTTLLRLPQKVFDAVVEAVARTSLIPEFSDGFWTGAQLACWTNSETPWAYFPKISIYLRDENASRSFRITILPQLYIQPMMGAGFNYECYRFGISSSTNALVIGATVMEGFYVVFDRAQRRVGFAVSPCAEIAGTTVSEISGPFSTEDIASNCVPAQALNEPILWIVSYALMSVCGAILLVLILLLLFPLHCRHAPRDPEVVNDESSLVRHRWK
In short: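 Ins1e-derived INS-TMEM27 rat cells with doxycycline-inducible full-length human TMEM27; inhibitor added 2 h before doxycycline (500 ng/ml final), then 46 h at 37 °C. Shed TMEM27 in supernatant quantified by sandwich ELISA with anti-human-TMEM27 antibodies; EC50 from curve fit across inhibitor concentrations.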

[2] = target: T2, BACE1 (Homo sapiens, UniProt P56817); experiment: Cellular Aβ-lowering assay (Aβ40 ELISA); assay type: cell-based; details: HEK293 cells stably expressing human APP695; Aβ40 in culture supernatant; read-out: BACE1 cell act. Aβ40 IC50
T2 construct: Human HEK293 cells which are stably transfected with a vector expressing a cDNA of the human APP wt gene (APP695); endogenous in cells; host or cells: HEK293 stably transfected with human APP695 wt
In short: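 Aβ40 in supernatant measured by sandwich ELISA (TMB, 450 nm) and quantified against a pure Aβ peptide standard curve.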

T2 sequence (P56817 46-501): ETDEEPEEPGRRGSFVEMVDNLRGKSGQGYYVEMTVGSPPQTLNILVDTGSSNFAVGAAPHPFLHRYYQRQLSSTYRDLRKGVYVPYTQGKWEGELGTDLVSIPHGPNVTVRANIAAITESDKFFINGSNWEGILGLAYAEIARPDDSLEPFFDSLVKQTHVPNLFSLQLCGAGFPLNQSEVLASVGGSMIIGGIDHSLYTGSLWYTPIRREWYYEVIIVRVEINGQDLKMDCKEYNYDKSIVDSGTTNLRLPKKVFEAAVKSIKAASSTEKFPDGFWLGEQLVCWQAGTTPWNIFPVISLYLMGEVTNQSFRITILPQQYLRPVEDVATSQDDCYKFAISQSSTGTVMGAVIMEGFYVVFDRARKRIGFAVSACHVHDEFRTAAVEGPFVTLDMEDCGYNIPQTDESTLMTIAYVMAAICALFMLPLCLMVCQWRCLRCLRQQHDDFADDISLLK

Structure (SMILES) | IC50 [1] | IC50 [2]
C[C@@](O)(C(=O)Nc1ccc(F)c([C@@]2(C)N=C(N)OCC2(F)F)c1)C(F)(F)F [Example 76, (R)—N-[3-((R)-2-Amino-5,5-difluoro-4-methyl-5,6-dihydro-4H-[1,3]oxazin-4-yl)-4-fluoro-phenyl]-3,3,3-trifluoro-2-hydroxy-2-methyl-propionamide 2,2,2-trifluoroacetate] | 1420 nM | 1050 nM
Cc1nc(C(=O)Nc2ccc(F)c([C@@]3(C)N=C(N)OCC3(F)F)c2)co1 [Example 58, 2-Methyl-oxazole-4-carboxylic acid [3-((R)-2-amino-5,5-difluoro-4-methyl-5,6-dihydro-4H-[1,3]oxazin-4-yl)-4-fluoro-phenyl]-amide] | 25 nM | 15 nM
C[C@]1(c2cc(NC(=O)c3ncc(Cl)cn3)ccc2F)N=C(N)OCC1(F)F [Example 12, 5-Chloro-pyrimidine-2-carboxylic acid [3-((R)-2-amino-5,5-difluoro-4-methyl-5,6-dihydro-4H-[1,3]oxazin-4-yl)-4-fluoro-phenyl]-amide] | 69 nM | 23 nM
CC1(C)OC(N)=N[C@](C)(c2cc(NC(=O)c3ccc(Cl)cn3)ccc2F)C1(F)F [Example 19, 5-Chloro-pyridine-2-carboxylic acid [3-((R)-2-amino-5,5-difluoro-4,6,6-trimethyl-5,6-dihydro-4H-[1,3]oxazin-4-yl)-4-fluoro-phenyl]-amide] | 120 nM | 70 nM
C[C@]1(c2cc(NC(=O)c3ncccc3Cl)ccc2F)N=C(N)OCC1(F)F [Example 3, 3-Chloro-pyridine-2-carboxylic acid [3-((R)-2-amino-5,5-difluoro-4-methyl-5,6-dihydro-4H-[1,3]oxazin-4-yl)-4-fluoro-phenyl]-amide] | 52 nM | 87 nM
C[C@]1(c2cc(NC(=O)c3cnc(Cl)cn3)ccc2F)N=C(N)OCC1(F)F [Example 47, 5-Chloro-pyrazine-2-carboxylic acid [3-((R)-2-amino-5,5-difluoro-4-methyl-5,6-dihydro-4H-[1,3]oxazin-4-yl)-4-fluoro-phenyl]-amide] | 34900 nM | 520 nM
Cc1nc(C(=O)Nc2ccc(F)c([C@@]3(C)N=C(N)OCC3(F)F)c2)c(C(F)(F)F)o1 [Example 60, 2-Methyl-5-trifluoromethyl-oxazole-4-carboxylic acid [3-((R)-2-amino-5,5-difluoro-4-methyl-5,6-dihydro-4H-[1,3]oxazin-4-yl)-4-fluoro-phenyl]-amide] | 367 nM | 88 nM
CC1(C)OC(N)=N[C@](C)(c2cc(NC(=O)c3ccc(OC(F)F)cn3)ccc2F)C1(F)F [Example 27, 5-Difluoromethoxy-pyridine-2-carboxylic acid [3-((R)-2-amino-5,5-difluoro-4,6,6-trimethyl-5,6-dihydro-4H-[1,3]oxazin-4-yl)-4-fluoro-phenyl]-amide] | 5350 nM | 47 nM

Next, values leading:

IC50 [1] | IC50 [2] | Structure (SMILES)
19200 nM | 290 nM | C[C@]1(c2cc(NC(=O)c3ccc(OCC(F)(F)F)cn3)ccc2F)N=C(N)OCC1(F)F [Example 14, 5-(2,2,2-Trifluoro-ethoxy)-pyridine-2-carboxylic acid [3-((R)-2-amino-5,5-difluoro-4-methyl-5,6-dihydro-4H-[1,3]oxazin-4-yl)-4-fluoro-phenyl]-amide]
20 nM | 16 nM | CC1(C)OC(N)=N[C@](C)(c2cc(NC(=O)c3ncc(Cl)cn3)ccc2F)C1(F)F [Example 32, 5-Chloro-pyrimidine-2-carboxylic acid [3-((R)-2-amino-5,5-difluoro-4,6,6-trimethyl-5,6-dihydro-4H-[1,3]oxazin-4-yl)-4-fluoro-phenyl]-amide]
1540 nM | 91 nM | C[C@]1(c2cc(NC(=O)c3ncc(C(F)(F)F)cn3)ccc2F)N=C(N)OCC1(F)F [Example 16, 5-Trifluoromethyl-pyrimidine-2-carboxylic acid [3-((R)-2-amino-5,5-difluoro-4-methyl-5,6-dihydro-4H-[1,3]oxazin-4-yl)-4-fluoro-phenyl]-amide]
66 nM | 11 nM | CC1(C)OC(N)=N[C@](C)(c2cc(NC(=O)c3ncc(Cl)cc3Cl)ccc2F)C1(F)F [Example 23, 3,5-Dichloro-pyridine-2-carboxylic acid [3-((R)-2-amino-5,5-difluoro-4,6,6-trimethyl-5,6-dihydro-4H-[1,3]oxazin-4-yl)-4-fluoro-phenyl]-amide]
151 nM | 26 nM | C[C@]1(c2cc(NC(=O)c3ccc(C#N)cn3)cc(F)c2F)N=C(N)OCC1(F)F [Example 49, 5-Cyano-pyridine-2-carboxylic acid [3-((R)-2-amino-5,5-difluoro-4-methyl-5,6-dihydro-4H-[1,3]oxazin-4-yl)-4,5-difluoro-phenyl]-amide]
2250 nM | 25 nM | CC1(C)OC(N)=N[C@](C)(c2cc(NC(=O)c3ccc(C(F)(F)F)cn3)ccc2F)C1(F)F [Example 25, 5-Trifluoromethyl-pyridine-2-carboxylic acid [3-((R)-2-amino-5,5-difluoro-4,6,6-trimethyl-5,6-dihydro-4H-[1,3]oxazin-4-yl)-4-fluoro-phenyl]-amide]
245 nM | 635 nM | C[C@]1(c2cc(NC(=O)c3ncccc3OCC(F)(F)F)ccc2F)N=C(N)OCC1(F)F [Example 54, 3-(2,2,2-Trifluoro-ethoxy)-pyridine-2-carboxylic acid [3-((R)-2-amino-5,5-difluoro-4-methyl-5,6-dihydro-4H-[1,3]oxazin-4-yl)-4-fluoro-phenyl]-amide]
